# Source: US20050197350A1, “Novel quinoline, tetrahydroquinazoline, and pyrimidine derivatives and methods of treatment related to the use thereof” (TAISHO PHARMACEUTICAL CO., LTD., priority 2003, published 2005)
# Tested on: MCH receptors
# Assay: MCH receptor activity class (method not given)
# Conditions: MCH receptor; class by percent of control at 10^-7 M or IC50
row,Structure (SMILES),class
1,CN(C)c1ccc(NC(=S)N[C@H]2CC[C@@H](Nc3nc4c(c(N(C)C)n3)CCCC4)CC2)cc1 [compound 2072],3 (Class 3 The value of percent of control at 10^−7 M was more than 60% or the value of IC50 was more than 200 nM.)
2,CCN(CC)CCCNC(=S)N[C@H]1CC[C@@H](Nc2nc3c(c(N(C)C)n2)CCCC3)CC1 [compound 2073],3 (Class 3 The value of percent of control at 10^−7 M was more than 60% or the value of IC50 was more than 200 nM.)
3,CN(C)c1nc(N[C@H]2CC[C@@H](NC(=S)NCCN3CCOCC3)CC2)nc2c1CCCC2 [compound 2074],3 (Class 3 The value of percent of control at 10^−7 M was more than 60% or the value of IC50 was more than 200 nM.)
4,CN(C)c1nc(N[C@H]2CC[C@@H](NC(=S)Nc3ccc(-c4nc5c6ccccc6c6ccccc6c5o4)cc3)CC2)nc2c1CCCC2 [compound 2075],3 (Class 3 The value of percent of control at 10^−7 M was more than 60% or the value of IC50 was more than 200 nM.)
5,CN(C)c1nc(N[C@H]2CC[C@@H](NC(=S)Nc3cccnc3)CC2)nc2c1CCCC2 [compound 2076],3 (Class 3 The value of percent of control at 10^−7 M was more than 60% or the value of IC50 was more than 200 nM.)
6,CN(C)c1ccc(/N=N/c2ccc(NC(=S)N[C@H]3CC[C@@H](Nc4nc5c(c(N(C)C)n4)CCCC5)CC3)cc2)cc1 [compound 2077],3 (Class 3 The value of percent of control at 10^−7 M was more than 60% or the value of IC50 was more than 200 nM.)
7,CN(C)c1nc(N[C@H]2CC[C@@H](NC(=S)NCCCN3CCOCC3)CC2)nc2c1CCCC2 [compound 2078],3 (Class 3 The value of percent of control at 10^−7 M was more than 60% or the value of IC50 was more than 200 nM.)
8,CN(C)c1nc(N[C@H]2CC[C@@H](NC(=S)NCc3ccc(Cl)cc3)CC2)nc2c1CCCC2 [compound 2079],3 (Class 3 The value of percent of control at 10^−7 M was more than 60% or the value of IC50 was more than 200 nM.)
9,CN(C)c1nc(N[C@H]2CC[C@@H](NC(=S)Nc3ccc(/N=N/c4ccccc4)cc3)CC2)nc2c1CCCC2 [compound 2080],3 (Class 3 The value of percent of control at 10^−7 M was more than 60% or the value of IC50 was more than 200 nM.)
10,CN(C)c1nc(N[C@H]2CC[C@@H](NC(=S)NCCN3CCCCC3)CC2)nc2c1CCCC2 [compound 2081],3 (Class 3 The value of percent of control at 10^−7 M was more than 60% or the value of IC50 was more than 200 nM.)
11,CN(C)c1nc(N[C@H]2CC[C@@H](NC(=S)Nc3ccc(-n4cccn4)cc3)CC2)nc2c1CCCC2 [compound 2082],3 (Class 3 The value of percent of control at 10^−7 M was more than 60% or the value of IC50 was more than 200 nM.)
12,CN(C)c1nc(N[C@H]2CC[C@@H](NC(=S)Nc3cccc4nsnc34)CC2)nc2c1CCCC2 [compound 2083],3 (Class 3 The value of percent of control at 10^−7 M was more than 60% or the value of IC50 was more than 200 nM.)
13,CN(C)c1nc(N[C@H]2CC[C@@H](NC(=S)Nc3ccc4nsnc4c3)CC2)nc2c1CCCC2 [compound 2084],3 (Class 3 The value of percent of control at 10^−7 M was more than 60% or the value of IC50 was more than 200 nM.)
14,Cc1noc(C)c1NC(=S)N[C@H]1CC[C@@H](Nc2nc3c(c(N(C)C)n2)CCCC3)CC1 [compound 2085],3 (Class 3 The value of percent of control at 10^−7 M was more than 60% or the value of IC50 was more than 200 nM.)

# Same assay, conditions: class by percent of control at 10^-7 M or IC50
row,Structure (SMILES),class
1,CN(C)c1nc(N[C@H]2CC[C@@H](NC(=S)Nc3ccc(-c4cnco4)cc3)CC2)nc2c1CCCC2 [compound 2086],3 (Class 3 The value of percent of control at 10^−7 M was more than 60% or the value of IC50 was more than 200 nM.)
2,CN(C)c1nc(N[C@H]2CC[C@@H](NC(=S)Nc3ccc(N4CCOCC4)nc3)CC2)nc2c1CCCC2 [compound 2087],3 (Class 3 The value of percent of control at 10^−7 M was more than 60% or the value of IC50 was more than 200 nM.)
3,CN(C)c1nc(N[C@H]2CC[C@@H](NC(=S)Nc3ccc(Oc4ccccc4)nc3)CC2)nc2c1CCCC2 [compound 2088],3 (Class 3 The value of percent of control at 10^−7 M was more than 60% or the value of IC50 was more than 200 nM.)
